Holding throughout (assay): MIC determination by NCCLS dilution antimicrobial susceptibility test
Holding throughout (assay type): cell-based

Test [1] deals with bacillus subtilis ATCC 6633. Conditions: ATCC6633. From the text:
(§1) The antibacterial effects of HKI10311129 can be determined by applying methods well-known to the experts, such as the agar plate diffusion test and the determination of the minimal inhibitory concentration (MIC).
(§2) The antimicrobial characteristics have been tested according to the US laboratory standards—National Committee for Clinical Laboratory Standards, Methods for dilution anti-microbial susceptibility tests for bacteria that grow aerobically, Approved Standard M7-A. NCCLS, Villanova, Pa., 1991).

Test [2] has as its system enterococcus faecalis 1528 (VRE). The following applies: vanA-type vancomycin resistance.
Source text: as §1, §2

In test [3] the test system is staphylococcus aureus 134/93 (MRSA). Conditions: multiresistant.
Source text: as §1, §2

Test [4] concerns staphylococcus aureus SG 511. Conditions: SG511.
Source text: as §1, §2

The values below come from patent US7557091B2, “HKI10311129, novel antibiotic, method for producing the same and the use thereof” (Leibniz-Institut fuer Naturstoff-Forschung und …, priority 2004, dated 2009).

Each structure is given as a SMILES string. ≈ marks a conversion by molar mass, not a printed value.

Take `COC1=CC(=O)c2c(cc3c(c2O)C(=O)C2(OC4CCC(OC5CCC(O)C(C)O5)C(C)O4)C(=O)C(C(N)=O)=C(O)C(OC4CCC(OC5CCC(OC6CCC(OC7CCC(O)C(C)O7)C(C)O6)C(C)O5)C(C)O4)C2C3)C1=O` (stereo not shown) [HKI10311129]: the minimum inhibitory concentration (MIC) is less than 0.05 µg/mL in test [1], 0.4 µg/mL (≈ 0.359 µM) in test [2], 0.8 µg/mL (≈ 0.718 µM) in test [3] and 0.8 µg/mL (≈ 0.718 µM) in test [4].
